US8673940B2, “Compounds for the treatment of diseases associated with amyloid or amyloid-like proteins” (AC Immune SA, priority 2006, dated 2014)
Counter-ions that a name gives are not always drawn.

Target: T1, amyloid beta (Aβ) 1-42 peptide (Homo sapiens, UniProt P05067)
T1 construct: amyloid beta (Aβ) 1-42 peptide; purchased Bachem
Assay: Thioflavin T spectrofluorescence assay, inhibition of Aβ1-42 aggregation
Format: biochemical
Details: 330 μM small molecule, 33 μM Aβ1-42 (10:1 molar ratio), 24 hrs at 37° C.; mean ± SD of two independent experiments; read-out: % inhibition
Experimental: A number of the small molecules were tested for their capacity to inhibit the aggregation of amyloid beta (Aβ) 1-42 peptide using a thioflavin T spectrofluorescence assay.
Aβ1-42 lyophilized powder (Bachem) was reconstituted in hexafluoroisopropanol (HFIP) to 1 mM. The peptide solution was sonicated for 15 min at room temperature, agitated overnight, and aliquots were placed into non-siliconized microcentrifuge tubes. The HFIP was then evaporated under a stream of argon. The resulting peptide film was dried under vacuum for 10 min, tightly sealed and stored at −80° C. until used.
To assay for the small molecule-mediated inhibition of Aβ1-42 aggregation, the small molecules were dissolved before each experiment in anhydrous dimethyl sulfoxide (DMSO, Sigma-Aldrich) to reach a concentration of 7.4 mM. Aβ1-42 peptide film was dissolved in DMSO to reach 400 μM. Assay solution in PBS buffer was prepared in non-siliconized incubation tubes to reach the following concentrations: 330 μM small molecule, 33 μM Aβ1-42, 10 μM thioflavin T (ThT), and 12.8% DMSO. Therefore, the final molar ratio of small molecule to Aβ1-42 was 10:1. A positive control without a small molecule was prepared to measure maximum RFU. A negative control without Aβ1-42 was prepared for each small molecule. 3-Aminopyrazole trimer (Trimer) was tested in all assays to ascertain reproducibility between independent experiments. The solutions were incubated for 24 hrs at 37° C., and the spectrofluorescence (relative fluorescence units; RFU) was read in six replicates in black 384-well assay plates (Perkin-Elmer) on a Perkin-Elmer FluoroCount spectrofluorometer. Inhibition of aggregation is expressed as mean % inhibition or ±1 standard deviation (SD) according to the following equation: […]
Cut-off criterium for the selection of functional molecules was defined at 50% inhibition capacity.
The small molecules were evaluated for their capacity to mediate inhibition of Aβ1-42 aggregation at a 10:1 small molecule to Aβ1-42 molar ratio. The results are expressed as mean±standard deviation of two independent experiments.

T1 sequence (P05067 672-713 limits assumed): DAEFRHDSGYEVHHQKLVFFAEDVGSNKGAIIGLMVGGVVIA

Q: Which inhibition at 330 µM does the source give for Fc1ccc(-c2cc(CNc3cccc(NCc4ccccc4)n3)n[nH]2)cc1 [Compound 2s, N^2-benzyl-N^6-((5-(4-fluorophenyl)-1H-pyrazol-3-yl)methyl)pyridine-2,6-diamine] here?
A: Its inhibition at 330 µM is 55.1 ± 6.4%.

Q: Which inhibition at 330 µM does the source give for Fc1ccc(NCc2ccc(NCc3ccccc3)nc2)nc1 [Compound 2q, N-Benzyl-5-((5-fluoropyridin-2-ylamino)methyl)pyridin-2-amine] here?
A: Its inhibition at 330 µM is 45 ± 8.3%.

Q: For c1ccc(CNc2cccc(CNc3cc(-c4cccs4)[nH]n3)n2)cc1 [Compound 2ac, N-benzyl-6-((5-(thiophen-2-yl)-1H-pyrazol-3-ylamino)methyl)pyridin-2-amine], which inhibition at 330 µM is on record?
A: The inhibition at 330 µM was 78.5 ± 1.3%.

Q: For Nc1cccc(NCc2ccc(NCc3ccccc3)nc2)n1 [Compound 2y, N^2-((6-(benzylamino)pyridin-3-yl)methyl)pyridine-2,6-diamine], which inhibition at 330 µM is on record?
A: The inhibition at 330 µM was 57 ± 15.9%.

Same assay, conditions: 24 h

Q: For c1ccc(Nc2ncc(CNc3nccs3)s2)nc1 [Compound 2p, N-(Pyridin-2-yl)-5-((thiazol-2-ylamino)methyl)thiazol-2-amine trihydrochloride], which inhibition at 330 µM is on record?
A: Its inhibition at 330 µM is 43.6 ± 2.1%.

Q: With c1ccc(CNc2ncc(CNc3ncc(Cc4ccccc4)s3)s2)cc1 [Compound 2ag, 5-Benzyl-N-((2-(benzylamino)thiazol-5-yl)methyl)thiazol-2-amine dihydrochloride] as the compound, how does the inhibition at 330 µM read?
A: The inhibition at 330 µM was 34.2 ± 1.6%.

Q: Which inhibition at 330 µM does the source give for Fc1ccc(-c2cc(NCc3cnc(NCc4ccccc4)s3)n[nH]2)cc1 [Compound 2k, N-Benzyl-5-((5-(4-fluorophenyl)-1H-pyrazol-3-ylamino)methyl)thiazol-2-amine dihydrochloride] here?
A: Its inhibition at 330 µM is 81.2 ± 7.3%.

Q: Which inhibition at 330 µM does the source give for CNc1ncc(CNc2ncc(Cc3ccccc3)s2)s1 [Compound 2ah, 5-Benzyl-N-((2-(methylamino)thiazol-5-yl)methyl)thiazol-2-amine dihydrochloride] here?
A: The inhibition at 330 µM was 35.7 ± 5.6%.

Q: With CCCNc1ncc(CNc2ncc(CNc3nc(-c4ccc(C)cc4)cs3)s2)s1 [Compound 2ad, N-Propyl-5-((5-((4-p-tolylthiazol-2-ylamino)methyl)thiazol-2-ylamino)methyl)thiazol-2-amine trihydrochloride] as the compound, how does the inhibition at 330 µM read?
A: The inhibition at 330 µM was 82.1 ± 2.2%.

Q: Which inhibition at 330 µM does the source give for c1ccc(CNc2ncc(CNc3nc(-c4cccs4)cs3)s2)cc1 [Compound 2al, N-Benzyl-5-((4-(thiophen-2-yl)thiazol-2-ylamino)methyl)thiazol-2-amine dihydrochloride] here?
A: Its inhibition at 330 µM is 66.1 ± 15.4%.

Q: With CNc1ncc(CNc2nc(-c3ccc(C)cc3)cs2)s1 [Compound 2n, N-Methyl-5-((4-p-tolylthiazol-2-ylamino)methyl)thiazol-2-amine dihydrochloride] as the compound, how does the inhibition at 330 µM read?
A: The inhibition at 330 µM was 27.8 ± 9.9%.

Q: For CNc1ncc(CNc2nccs2)s1 [Compound 2w, N-Methyl-5-((thiazol-2-ylamino)methyl)thiazole-2-amine dihydrochloride], which inhibition at 330 µM is on record?
A: The inhibition at 330 µM was 13.9 ± 12.9%.

Q: For Cc1ccc(-c2csc(NCc3cnc(Nc4ccccn4)s3)n2)cc1 [Compound 2z, N-(Pyridin-2-yl)-5-((4-p-tolylthiazol-2-ylamino)methyl)thiazol-2-amine trihydrochloride], which inhibition at 330 µM is on record?
A: Its inhibition at 330 µM is 58.7 ± 3%.

Q: For c1ccc(CNc2ncc(CNc3nc(Cc4ccccc4)cs3)s2)cc1 [Compound 2ae, 4-Benzyl-N-((2-(benzylamino)thiazol-5-yl)methyl)thiazol-2-amine dihydrochloride], which inhibition at 330 µM is on record?
A: The inhibition at 330 µM was 51.2 ± 1.5%.

Q: With CNc1ncc(CNc2ncc(-c3ccc(C)cc3)s2)s1 [Compound 2o, N-Methyl-5-((5-p-tolylthiazol-2-ylamino)methyl)thiazol-2-amine dihydrochloride] as the compound, how does the inhibition at 330 µM read?
A: The inhibition at 330 µM was 39.6 ± 2.8%.

Q: Which inhibition at 330 µM does the source give for Cc1ccc(-c2cc(CNc3cc(-c4ccc(C)cc4)[nH]n3)n[nH]2)cc1 [Compound 2a, 5-p-Tolyl-N-((5-p-tolyl-1H-pyrazol-3-yl)methyl)-1H-pyrazol-3-amine dihydrochloride] here?
A: Its inhibition at 330 µM is 65.3 ± 2.6%.

Q: With Cc1ccc(-c2csc(NCc3cnc(NCc4ccccc4)s3)n2)cc1 [Compound 2j, N-Benzyl-5-((4-p-tolylthiazol-2-ylamino)methyl)thiazol-2-amine dihydrochloride] as the compound, how does the inhibition at 330 µM read?
A: The inhibition at 330 µM was 70.7 ± 6.8%.

Q: With Cc1ccc(-c2cnc(NCc3cnc(NCc4ccccc4)s3)s2)cc1 [Compound 2h, N-Benzyl-5-((5-p-tolylthiazol-2-ylamino)methyl)thiazol-2-amine dihydrochloride] as the compound, how does the inhibition at 330 µM read?
A: The inhibition at 330 µM was 31.9 ± 10.1%.

Q: With Cc1ccc(-c2cc(CNc3cc(CNc4cc(-c5ccc(C)cc5)[nH]n4)n[nH]3)n[nH]2)cc1 [Compound 2ai, 5-p-Tolyl-N-((5-((5-p-tolyl-1H-pyrazol-3-yl)methylamino)-1H-pyrazol-3-yl)methyl)-1H-pyrazol-3-amine trihydrochloride] as the compound, how does the inhibition at 330 µM read?
A: The inhibition at 330 µM was 84.8%.

Q: Which inhibition at 330 µM does the source give for CNc1ncc(CNc2nc(-c3ccc(Cl)cc3)cs2)s1 [Compound 2aa, 4-(4-Chlorophenyl)-N-((2-(methylamino)thiazol-5-yl)methyl)thiazol-2-amine dihydrochloride] here?
A: The inhibition at 330 µM was 41.5 ± 9.6%.

Q: With CNc1ncc(CNc2nc(Cc3ccccc3)cs2)s1 [Compound 2af, 4-Benzyl-N-((2-(methylamino)thiazol-5-yl)methyl)thiazol-2-amine dihydrochloride] as the compound, how does the inhibition at 330 µM read?
A: The inhibition at 330 µM was 41.3 ± 9.2%.

Test system: not given
Assay: not given
Details: not given

Q: With Cc1ccc(-c2csc(NCc3cnc(Nc4ccccn4)s3)n2)cc1 (as salt: hydrochloride) [Compound 2z, N-(Pyridin-2-yl)-5-((4-p-tolylthiazol-2-ylamino)methyl)thiazol-2-amine trihydrochloride] as the compound, how does the melting point read?
A: Its melting point is 169 to 170 °C.

Q: For c1ccc(CNc2ncc(CNc3ncc(Cc4ccccc4)s3)s2)cc1 (as salt: hydrochloride) [Compound 2ag, 5-Benzyl-N-((2-(benzylamino)thiazol-5-yl)methyl)thiazol-2-amine dihydrochloride], which melting point is on record?
A: Its melting point is 96 to 97 °C.

Q: Which melting point does the source give for CNc1ncc(CNc2nc(-c3ccc(C)cc3)cs2)s1 (as salt: hydrochloride) [Compound 2n, N-Methyl-5-((4-p-tolylthiazol-2-ylamino)methyl)thiazol-2-amine dihydrochloride] here?
A: Its melting point is 114 to 116 °C.

Q: With CNc1ncc(CNc2nc(Cc3ccccc3)cs2)s1 (as salt: hydrochloride) [Compound 2af, 4-Benzyl-N-((2-(methylamino)thiazol-5-yl)methyl)thiazol-2-amine dihydrochloride] as the compound, how does the melting point read?
A: The melting point was 126 to 127 °C.

Q: Which melting point does the source give for c1ccc(CNc2ncc(CNc3nc(Cc4ccccc4)cs3)s2)cc1 (as salt: hydrochloride) [Compound 2ae, 4-Benzyl-N-((2-(benzylamino)thiazol-5-yl)methyl)thiazol-2-amine dihydrochloride] here?
A: The melting point was 78 to 79 °C.

Q: Which melting point does the source give for Cc1ccc(-c2csc(NCc3cnc(NCc4ccccc4)s3)n2)cc1 (as salt: hydrochloride) [Compound 2j, N-Benzyl-5-((4-p-tolylthiazol-2-ylamino)methyl)thiazol-2-amine dihydrochloride] here?
A: Its melting point is 106 to 108 °C.

Q: Which melting point does the source give for CNc1ncc(CNc2ncc(Cc3ccccc3)s2)s1 (as salt: hydrochloride) [Compound 2ah, 5-Benzyl-N-((2-(methylamino)thiazol-5-yl)methyl)thiazol-2-amine dihydrochloride] here?
A: The melting point was 76 to 77 °C.

Q: Which melting point does the source give for Cc1ccc(-c2cnc(NCc3cnc(NCc4ccccc4)s3)s2)cc1 (as salt: hydrochloride) [Compound 2h, N-Benzyl-5-((5-p-tolylthiazol-2-ylamino)methyl)thiazol-2-amine dihydrochloride] here?
A: The melting point was 105 to 106 °C.
